Test results published in US9266904B2, “6-bridged heteroaryldihydropyrimidines for the treatment and prophylaxis of hepatitis B virus infection” (priority 2013, dated 2016).
pEC50: −log10 of the molar value. Values after ≈ are worked out from the molar mass of the structure shown.

Experiments:
[1] = Lyophilisation solubility assay (Lysa); format: physicochemical; details: pH 6.5, aqueous buffer, thermodynamic from solid
Method: The aqueous solubility is an important physico-chemical property that plays a significant role in various physical and biological processes. It is desirable to have good solubility which enables good permeability and gastric and intestinal absorption, linear dose proportionality, less PK variability, and easy formulation for PD/PK studies. […] Lyophilisation solubility assay (Lysa) is a well adopted high throughput assay to measure compound solubility in industry.
Samples are prepared in duplicate from 10 mM DMSO stock solutions. After evaporation of DMSO with a centrifugal vacuum evaporator, the residue is solved in 0.05 M phosphate buffer (pH 6.5), stirred for one hour and then shook for two hours. After one night, the solution is filtered using a microtiter filter plate and then the filtrate and its 1/10 dilution are then analyzed by direct UV measurement or by HPLC-UV. In addition a four-point calibration curve is prepared from the 10 mM stock solutions and used for the solubility determination of the compounds. The results are in μg/ml. In case the percentage of sample measured in solution after evaporation divided by the calculated maximum of sample amount is bigger than 80% the solubility is reported as bigger than this value.

[2] = test system: HBV replication in HepG2.2.15 cells; assay: Anti-HBV activity in vitro in HepG2.2.15 cells (extracellular HBV DNA by qPCR); format: cell-based; details: Hepatitis B virus, HepG2.2.15, Anti-HBV activity in HepG2.2.15 cells; read-out: EC50
In short: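 Constitutively HBV-producing HepG2.2.15 cells were seeded overnight at 37 °C, then treated with half-log serial dilutions of compound (0.5% DMSO final) for five days. Supernatant HBV DNA was extracted and quantified by qPCR; EC50 is the concentration inhibiting HBV replication by 50%.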

[3] = Human microsomal clearance assay; format: in vitro ADME; details: human, 1 μM, pH 7.4
In short: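 Liver microsomes (0.5 mg/mL protein) were incubated with 1 μM compound at 37 °C, pH 7.4 phosphate, with an NADPH-regenerating system. Samples at 0-30 min were quenched and measured by LC-MS/MS for parent loss. No-NADPH controls were included.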

Row | Structure (SMILES) | solubility thermodynamic [1] [mg/mL] | pEC50 [2] | CLh [3] [L/h/kg]
1 | COC(=O)C1=C(CN2[C@@H]3COC[C@H]2C[C@@H](CC(=O)O)C3)NC(c2nccs2)=N[C@H]1c1cccc(F)c1Cl [Example 55, 2-[(1R,5)-9-[[(4R)-4-(2-chloro-3-fluoro-phenyl)-5-methoxycarbonyl-2-thiazol-2-yl-1,4-dihydropyrimidin-6-yl]methyl]-3-oxa-9-azabicyclo[3.3.1]nonan-7-yl]acetic acid] | 0.505 (≈ 920 µM) | 7.65 | 0
2 | CCOC(=O)C1=C(CN2[C@@H]3COC[C@H]2C[C@H](CC(=O)O)C3)NC(c2nccs2)=N[C@H]1c1cccc(F)c1F [Example 75, Exo-2-[(1S,5R)-9-[[(4R)-4-(2,3-difluorophenyl)-5-ethoxycarbonyl-2-thiazol-2-yl-1,4-dihydropyrimidin-6-yl]methyl]-3-oxa-9-azabicyclo[3.3.1]nonan-7-yl]acetic acid] | > 0.656 | 7.54 | 0.06
3 | COC(=O)C1=C(CN2[C@@H]3COC[C@H]2C[C@H](CC(=O)O)C3)NC(c2nccs2)=N[C@H]1c1ccccc1Br [Example 76, Exo-2-[(1S,5R)-9-[[(4R)-4-(2-bromophenyl)-5-methoxycarbonyl-2-thiazol-2-yl-1,4-dihydropyrimidin-6-yl]methyl]-3-oxa-9-azabicyclo[3.3.1]nonan-7-yl]acetic acid] | > 0.706 | 7.51 | 0.198
4 | COC(=O)C1=C(CN2[C@@H]3COC[C@H]2CN(C(=O)C(C)(C)C(=O)O)C3)NC(c2nccs2)=N[C@H]1c1ccc(F)cc1Cl [Example 79, 3-[(1S,5R)-9-[[(4R)-4-(2-chloro-4-fluoro-phenyl)-5-methoxycarbonyl-2-thiazol-2-yl-1,4-dihydropyrimidin-6-yl]methyl]-3-oxa-7,9-diazabicyclo[3.3.1]nonan-7-yl]-2,2-dimethyl-3-oxo-propanoic acid] | > 0.745 | 6.53 | 0.21
5 | COC(=O)C1=C(CN2[C@H]3CC[C@]2(C(=O)O)COC3)NC(c2nccs2)=N[C@H]1c1ccc(F)cc1Cl [Example 81, (1S,5R)-8-[[(4R)-4-(2-chloro-4-fluoro-phenyl)-5-methoxycarbonyl-2-thiazol-2-yl-1,4-dihydropyrimidin-6-yl]methyl]-3-oxa-8-azabicyclo[3.2.1]octane-5-carboxylic acid] | > 0.673 | 7.39 | 0
6 | COC(=O)C1=C(CN2[C@H]3CC[C@]2(C(=O)O)COC3)NC(c2nccs2)=N[C@H]1c1ccc(F)c(F)c1C [Example 84, (1S,5R)-8-[[(4S)-4-(3,4-difluoro-2-methyl-phenyl)-5-methoxycarbonyl-2-thiazol-2-yl-1,4-dihydropyrimidin-6-yl]methyl]-3-oxa-8-azabicyclo[3.2.1]octane-5-carboxylic acid] | > 0.643 | 7.42 | 0
7 | COC(=O)C1=C(CN2[C@@H]3C[C@H](CC(=O)O)C[C@H]2C(F)(F)C3)NC(c2nccs2)=N[C@H]1c1ccc(F)cc1Cl [Example 86, 2-[(1R,3S,5S)-8-[[(4R)-4-(2-chloro-4-fluoro-phenyl)-5-methoxycarbonyl-2-thiazol-2-yl-1,4-dihydropyrimidin-6-yl]methyl]-6,6-difluoro-8-azabicyclo[3.2.1]octan-3-yl]acetic acid] | 0.149 (≈ 262 µM) | 8.70 | 0
8 | COC(=O)C1=C(CN2[C@H]3COC[C@@H]2[C@@H](F)[C@H](CC(=O)O)C3)NC(c2nccs2)=N[C@H]1c1cccc(F)c1Cl [Example 101, 2-[(1R,5R,6S,7S)-9-[[(4R)-4-(2-chloro-3-fluoro-phenyl)-5-methoxycarbonyl-2-thiazol-2-yl-1,4-dihydropyrimidin-6-yl]methyl]-6-fluoro-3-oxa-9-azabicyclo[3.3.1]nonan-7-yl]acetic acid] | 0.58 (≈ 1020 µM) | 7.62 | 0
9 | CCOC(=O)C1=C(CN2[C@@H]3COC[C@H]2[C@H](F)[C@@H](CC(=O)O)C3)NC(c2nccs2)=N[C@H]1c1ccccc1Cl [Example 102, 2-[(1S,5S,6R,7R)-9-[[(4R)-4-(2-chlorophenyl)-5-ethoxycarbonyl-2-thiazol-2-yl-1,4-dihydropyrimidin-6-yl]methyl]-6-fluoro-3-oxa-9-azabicyclo[3.3.1]nonan-7-yl]acetic acid] | 0.41 (≈ 728 µM) | 7.18 | 0.18
10 | CCOC(=O)C1=C(CN2[C@H]3COC[C@@H]2[C@@H](F)[C@H](CC(=O)O)C3)NC(c2nccs2)=N[C@H]1c1ccccc1Cl [Example 103, 2-[(1R,5R,6S,7S)-9-[[(4R)-4-(2-chlorophenyl)-5-ethoxycarbonyl-2-thiazol-2-yl-1,4-dihydropyrimidin-6-yl]methyl]-6-fluoro-3-oxa-9-azabicyclo[3.3.1]nonan-7-yl]acetic acid] | 0.345 (≈ 613 µM) | 6.56 | 0
11 | COC(=O)C1=C(CN2[C@@H]3C[C@H](CC(=O)O)C[C@H]2C(F)(F)C3)NC(c2nccs2)=N[C@H]1c1ccc(F)c(F)c1 [Example 114, 2-[(1R,3S,5S)-8-[[(4S)-4-(3,4-difluorophenyl)-5-methoxycarbonyl-2-thiazol-2-yl-1,4-dihydropyrimidin-6-yl]methyl]-6,6-difluoro-8-azabicyclo[3.2.1]octan-3-yl]acetic acid] | 0.224 (≈ 405 µM) | 8.20 | 0.072
12 | COC(=O)C1=C(CN2[C@H]3C[C@@H](CC(=O)O)C[C@@H]2C(F)(F)C3)NC(c2nccs2)=N[C@H]1c1ccc(F)c(F)c1 [Example 115, 2-[(1S,3R,5R)-8-[[(4S)-4-(3,4-difluoro-phenyl)-5-methoxycarbonyl-2-thiazol-2-yl-1,4-dihydropyrimidin-6-yl]methyl]-6,6-difluoro-8-azabicyclo[3.2.1]octan-3-yl]acetic acid] | 0.128 (≈ 232 µM) | 6.79 | 0.276
13 | COC(=O)C1=C(CN2C3COCC2C(O)[C@H](CC(=O)O)C3)NC(c2nccs2)=N[C@H]1c1ccc(F)cc1Cl (stereo partly drawn) [Example 123, 2-[(7S)-9-[[(4R)-4-(2-chloro-4-fluoro-phenyl)-5-methoxycarbonyl-2-thiazol-2-yl-1,4-dihydropyrimidin-6-yl]methyl]-6-hydroxy-3-oxa-9-azabicyclo[3.3.1]nonan-7-yl]acetic acid] | > 0.753 | 7.45 | 0.18
14 | COC(=O)C1=C(CN2C3COCC2C(O)[C@@H](CC(=O)O)C3)NC(c2nccs2)=N[C@H]1c1ccc(F)cc1Cl (stereo partly drawn) [Example 124, 2-[(7R)-9-[[(4R)-4-(2-chloro-4-fluoro-phenyl)-5-methoxycarbonyl-2-thiazol-2-yl-1,4-dihydropyrimidin-6-yl]methyl]-6-hydroxy-3-oxa-9-azabicyclo[3.3.1]nonan-7-yl]acetic acid] | > 0.753 | 6.53 | 0.252
15 | COC(=O)C1=C(CN2C3COCC2C(F)(F)[C@@H](CC(=O)O)C3)NC(c2nccs2)=N[C@H]1c1ccc(F)cc1Cl (stereo partly drawn) [Example 125, 2-[(7R)-9-[[(4R)-4-(2-chloro-4-fluoro-phenyl)-5-methoxycarbonyl-2-thiazol-2-yl-1,4-dihydropyrimidin-6-yl]methyl]-6,6-difluoro-3-oxa-9-azabicyclo[3.3.1]nonan-7-yl]acetic acid] | 0.17 (≈ 291 µM) | 7.58 | 0
16 | COC(=O)C1=C(CN2C3COCC2CC(CC(=O)O)C3)NC(c2nccs2)=N[C@H]1c1ccccc1Br (stereo partly drawn) [Example 134, Endo-2-[9-[[(4R)-4-(2-bromophenyl)-5-methoxycarbonyl-2-thiazol-2-yl-1,4-dihydropyrimidin-6-yl]methyl]-3-oxa-9-azabicyclo[3.3.1]nonan-7-yl]acetic acid] | > 0.695 | 7.68 | 0.102
17 | COC(=O)C1=C(CN2C3COCC2CC(CC(=O)O)C3)NC(c2nccs2)=N[C@H]1c1ccc(Cl)c(F)c1 (stereo partly drawn) [Example 136, Endo-2-[9-[[(4S)-4-(4-chloro-3-fluoro-phenyl)-5-methoxycarbonyl-2-thiazol-2-yl-1,4-dihydropyrimidin-6-yl]methyl]-3-oxa-9-azabicyclo[3.3.1]nonan-7-yl]acetic acid] | 0.485 (≈ 883 µM) | 6.99 | 0.33
18 | COC(=O)C1=C(CN2C3COCC2CC(N)(C(=O)O)C3)NC(c2nccs2)=N[C@H]1c1ccc(F)cc1Cl (stereo partly drawn) [Example 139, 7-amino-9-[[(4R)-4-(2-chloro-4-fluoro-phenyl)-5-methoxycarbonyl-2-thiazol-2-yl-1,4-dihydropyrimidin-6-yl]methyl]-3-oxa-9-azabicyclo[3.3.1]nonane-7-carboxylic acid] | > 0.61 | 6.76 | 0.306
